US6943026B1, “Antitumour vector constructs and methods” (Cyclacel Limited, priority 1995, dated 2005)

Tested on: Saos-2 cells
Experiment: GCV tolerance (toxicity of GCV alone to cells)
Format: cell-based, human
Conditions: 1.25×10^−5-6.2×10^−5M
Experimental: The GCV tolerance profile of Saos-2 cells was determined in parallel by treating the cells with various concentrations of GCV (ranging from 0.1 μmole to 2 mM).
The toxicity of the GCV to cells were analysed by subjecting the cells to various concentration of GCV (ranging from 0.1 μmole to 2 mM GCV at 37° C.) for 3 days. The remaining steps of the treatment were carried out as the tk-GCV assay.

Nc1nc(O)c2ncn(COC(CO)CO)c2n1 [Gancyclovir, Ganciclovir]
effect on cell viability of gancyclovir by itself: no effect
